Molecules are shown by their SMILES.

Results on one compound are retold here after patent US12227521B2, “CGRP antagonist compounds” (Nxera Pharma UK Limited, priority 2019, dated 2025).

The target of the assay is T1, human CGRP receptor (Homo sapiens, UniProt O60894+Q16602).
T1 construct: SK-N-MC endogenously expressing the human CGRP receptor; endogenous in cells; host or cells: SK-N-MC human neuroblastoma cells
The assay is described as follows: cAMP functional assay (HTRF cAMP dynamic-2) in SK-N-MC cells. Format: cell-based. As to conditions: SK-N-MC cells endogenously expressing human CGRP receptor; challenge with EC80 human CGRP (0.3 nM); functional pKb converted from pIC50 by modified Cheng-Prussoff equation. As to the method:
cAMP production following receptor activation was determined using the Homogeneous Time-Resolved Fluorescence (HTRF) cAMP dynamic-2 assay (Cisbio, France). The human neuroblastoma cell line SK-N-MC endogenously expressing the human CGRP receptor was seeded at a density of 12,500 cells/well in solid walled 96 well half area plates (Costar, Catalog Number 3688, Corning Life Sciences, Germany). After 16 h incubation at 37° C. media was removed and cells were incubated at 37° C. for 30 min in serum free media containing 500 μM IBMX (Tocris, Abingdon, UK, Catalog Number 2845) and increasing concentrations of test antagonist. Following this cells were challenged with an EC80 concentration of human CGRP (0.3 nM) for a further 30 m at 37°) and then cAMP production was determined as manufacturer's instructions before plates were read on a PheraStar fluorescence plate reader (BMG LabTech, Germany). IC50 values were derived from the inhibition curve. The pIC50 values (where pIC50=−log10 IC50) were converted to a functional pKb value using a modified Cheng-Prussoff equation where Kd=agonist EC50 and L hot=agonist challenge concentration. The pKb values of certain compounds of the invention are detailed in Table 5.
(In general: In TR-FRET formats the signal depends on donor and acceptor labels being close together.)

T1 sequence (Q16602 23-461): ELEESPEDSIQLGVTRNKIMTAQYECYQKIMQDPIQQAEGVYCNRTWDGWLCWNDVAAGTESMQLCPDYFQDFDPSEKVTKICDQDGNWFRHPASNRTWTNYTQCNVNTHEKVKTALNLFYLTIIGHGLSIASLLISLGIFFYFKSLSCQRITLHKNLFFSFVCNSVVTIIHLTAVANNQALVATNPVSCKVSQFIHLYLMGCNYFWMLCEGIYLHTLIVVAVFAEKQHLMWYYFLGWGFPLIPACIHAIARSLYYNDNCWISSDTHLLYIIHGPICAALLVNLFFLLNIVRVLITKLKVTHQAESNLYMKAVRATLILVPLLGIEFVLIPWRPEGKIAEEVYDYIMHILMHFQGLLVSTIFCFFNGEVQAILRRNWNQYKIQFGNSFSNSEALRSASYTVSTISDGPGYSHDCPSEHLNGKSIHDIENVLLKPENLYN
T1 sequence (O60894 27-148): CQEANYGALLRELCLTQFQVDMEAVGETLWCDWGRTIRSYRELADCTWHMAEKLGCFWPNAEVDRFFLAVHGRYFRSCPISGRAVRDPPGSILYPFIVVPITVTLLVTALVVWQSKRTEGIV

With `C[C@@H]1[C@H](c2c(F)ccc(F)c2F)C[C@@H]2NC(=O)c3cnc4c(c3)C[C@@]3(C4)C(=O)Nc4ncc(cc43)/C=C/COCCOCCN1C2=O` (single isomer, unassigned) [1-1 Isomer 1], the Kb was 6.31 pM.
